{
  "source": "patent US8822468B2",
  "about": "(Novartis AG, priority 2008, dated 2014)",
  "data": [
    {"target": "T1, cMET receptor tyrosine kinase (GST-cMET (969-1390)) (Homo sapiens, UniProt P08581)", "T1 construct": "made in house", "T1 sequence (P08581 969-1390)": "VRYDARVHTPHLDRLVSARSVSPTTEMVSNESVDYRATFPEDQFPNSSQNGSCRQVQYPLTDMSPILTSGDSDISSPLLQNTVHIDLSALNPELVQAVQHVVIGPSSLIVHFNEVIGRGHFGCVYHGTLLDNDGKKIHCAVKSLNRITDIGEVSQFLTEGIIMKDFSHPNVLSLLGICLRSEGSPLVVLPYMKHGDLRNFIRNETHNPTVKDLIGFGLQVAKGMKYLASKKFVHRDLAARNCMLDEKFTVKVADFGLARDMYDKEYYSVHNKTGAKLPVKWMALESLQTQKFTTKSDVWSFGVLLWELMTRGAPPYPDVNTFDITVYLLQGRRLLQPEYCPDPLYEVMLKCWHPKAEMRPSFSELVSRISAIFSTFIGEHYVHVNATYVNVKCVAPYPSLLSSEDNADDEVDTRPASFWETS", "experiment": "EPK cMET profiling assay (LanthaScreen TR-FRET antibody based kinase phosphorylation assay)", "format": "biochemical", "conditions": "purified recombinant GST-cMET (969-1390), 2 μM ATP, 50 nM Fluorescein-PolyEAY, 60 minutes at room temperature; read-out: c-Met IC50", "outline": "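GST-cMET cytoplasmic domain (969-1390), 0.3 nM, phosphorylated 50 nM fluorescein-PolyEAY with 2 µM ATP, Mg2+/Mn2+, 0.6% DMSO, 60 min at room temperature. Stopped with EDTA; Tb-PY20 antibody TR-FRET single end-point read. Final compound concentrations 10 to 0.003 µM, 8 points.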", "units": {"IC50": "nM"}, "values": [
      {"molecule": "C[C@@H](c1ccc2c(cnn2CCO)c1)c1cnc2ccc(-c3cnn(C)c3)nn12", "note": "[Example 275, 2-(5-{(S)-1-[6-(1-Methyl-1H-pyrazol-4-yl)-imidazo[1,2-b]pyridazin-3-yl]-ethyl}-indazol-1-yl)ethanol]", "IC50": 150},
      {"molecule": "Cn1cc(-c2ccc3ncc(Cc4ccc5c(cnn5C)c4)n3n2)cn1", "note": "[Example 276, 3-(1-Methyl-1H-indazol-5-ylmethyl)-6-(1-methyl-1H-pyrazol-4-yl)-imidazo[1,2-b]pyridazine]", "IC50": 82},
      {"molecule": "Cn1cc(-c2ccc3ncc(Cc4cc5cnn(C)c5cc4F)n3n2)cn1", "note": "[Example 277, 3-(6-Fluoro-1-methyl-1H-indazol-5-ylmethyl)-6-(1-methyl-1H-pyrazol-4-yl)-imidazo[1,2-b]pyridazine]", "IC50": 61},
      {"molecule": "Cn1ncc2cc(Cc3cnc4ccc(-c5cnn(CCO)c5)nn34)c(F)cc21", "note": "[Example 281, 2-{4-[3-(6-Fluoro-1-methyl-1H-indazol-5-ylmethyl)-imidazo[1,2-b]pyridazin-6-yl]-pyrazol-1-yl}-ethanol]", "IC50": 77},
      {"molecule": "Cn1ncc2cc(Cc3cnc4ccc(-c5cnn(C6CCNCC6)c5)nn34)c(F)cc21", "note": "[Example 282, 3-(6-Fluoro-1-methyl-1H-indazol-5-ylmethyl)-6-(1-piperidin-4-yl-1H-pyrazol-4-yl)-imidazo[1,2-b]pyridazine]", "IC50": 87},
      {"molecule": "Cn1cc(-c2ccc3ncc(Cc4c(F)cc5c(cnn5C)c4F)n3n2)cn1", "note": "[Example 284, 3-(4,6-Difluoro-1-methyl-1H-indazol-5-ylmethyl)-6-(1-methyl-1H-pyrazol-4-yl)-imidazo[1,2-b]pyridazine]", "IC50": 150},
      {"molecule": "Cn1ncc2c(F)c(Cc3cnc4ccc(-c5cnn(CCO)c5)nn34)c(F)cc21", "note": "[Example 285, 2-{4-[3-(4,6-Difluoro-1-methyl-1H-indazol-5-ylmethyl)-imidazo[1,2-b]pyridazin-6-yl]-pyrazol-1-yl}-ethanol]", "IC50": 11},
      {"molecule": "Cn1cc(-c2ccc3ncc(Cc4ccc5nc(F)cn5c4)n3n2)cn1", "note": "[Example 288, 3-(2-Fluoro-imidazo[1,2-a]pyridin-6-ylmethyl)-6-(1-methyl-1H-pyrazol-4-yl)-imidazo[1,2-b]pyridazine]", "IC50": 850},
      {"molecule": "CCn1cc(-c2ccc3ncc(Cc4ccc5nccn5c4)n3n2)cn1", "note": "[Example 289, 6-(1-Ethyl-1H-pyrazol-4-yl)-3-imidazo[1,2-a]pyridin-6-ylmethyl-imidazo[1,2-b]pyridazine]", "IC50": 140},
      {"molecule": "c1cn2cc(Cc3cnc4ccc(-c5cn[nH]c5)nn34)ccc2n1", "note": "[Example 290, 3-Imidazo[1,2-a]pyridin-6-ylmethyl-6-(1H-pyrazol-4-yl)-imidazo[1,2-b]pyridazine]", "IC50": 120},
      {"molecule": "c1cn2cc(Cc3cnc4ccc(-c5cnn(C6CCNCC6)c5)nn34)ccc2n1", "note": "[Example 291, 3-Imidazo[1,2-a]pyridin-6-ylmethyl-6-(1-piperidin-4-yl-1H-pyrazol-4-yl)-imidazo[1,2-b]pyridazine]", "IC50": 590},
      {"molecule": "C[C@H](c1ccc2nccn2c1)c1cnc2ccc(-c3cnn(C)c3)nn12", "note": "[Example 294, 3-((R)-1-Imidazo[1,2-a]pyridin-6-yl-ethyl)-6-(1-methyl-1H-pyrazol-4-yl)-imidazo[1,2-b]pyridazine]", "IC50": 820},
      {"molecule": "C[C@@H](c1ccc2nccn2c1)c1cnc2ccc(-c3cnn(C)c3)nn12", "note": "[Example 295, 3-((S)-1-Imidazo[1,2-a]pyridin-6-yl-ethyl)-6-(1-methyl-1H-pyrazol-4-yl)-imidazo[1,2-b]pyridazine]", "IC50": 19},
      {"molecule": "Cn1cc(-c2ccc3ncc(Cc4ccc5ncc(Br)n5c4)n3n2)cn1", "note": "[Example 296, 3-(3-Bromo-imidazo[1,2-a]pyridin-6-ylmethyl)-6-(1-methyl-1H-pyrazol-4-yl)-imidazo[1,2-b]pyridazine]", "IC50": 57},
      {"molecule": "Cn1cc(-c2ccc3ncc(Cc4ccc5ncc(C=O)n5c4)n3n2)cn1", "note": "[Example 297, 6-[6-(1-Methyl-1H-pyrazol-4-yl)-imidazo[1,2-b]pyridazin-3-ylmethyl]-imidazo[1,2-a]pyridine-3-carbaldehyde]", "IC50": 130},
      {"molecule": "Cn1cc(-c2ccc3ncc(Cc4ccc5ncc(Cl)n5c4)n3n2)cn1", "note": "[Example 298, 3-(3-Chloro-imidazo[1,2-a]pyridin-6-ylmethyl)-6-(1-methyl-1H-pyrazol-4-yl)-imidazo[1,2-b]pyridazine]", "IC50": 130},
      {"molecule": "C=Cc1cnc2ccc(Cc3cnc4ccc(-c5cnn(C)c5)nn34)cn12", "note": "[Example 299, 6-(1-Methyl-1H-pyrazol-4-yl)-3-(3-vinyl-imidazo[1,2-a]pyridin-6-ylmethyl)-imidazo[1,2-b]pyridazine]", "IC50": 270},
      {"molecule": "Cn1cc(-c2ccc3ncc(Cc4ccc5ncc(CO)n5c4)n3n2)cn1", "note": "[Example 300, {6-[6-(1-Methyl-1H-pyrazol-4-yl)-imidazo[1,2-b]pyridazin-3-ylmethyl]-imidazo[1,2-a]pyridin-3-yl}-methanol]", "IC50": 300},
      {"molecule": "CC(=O)c1cnc2ccc(Cc3cnc4ccc(-c5cnn(C)c5)nn34)cn12", "note": "[Example 301, 1-{6-[6-(1-Methyl-1H-pyrazol-4-yl)-imidazo[1,2-b]pyridazin-3-ylmethyl]-imidazo[1,2-a]pyridin-3-yl}-ethanone]", "IC50": 71},
      {"molecule": "Cn1cc(-c2ccc3ncc(Cc4ccc5ncc(C#N)n5c4)n3n2)cn1", "note": "[Example 302, 6-[6-(1-Methyl-1H-pyrazol-4-yl)-imidazo[1,2-b]pyridazin-3-ylmethyl]-imidazo[1,2-a]pyridine-3-carbonitrile]", "IC50": 94},
      {"molecule": "CC(O)c1cnc2ccc(Cc3cnc4ccc(-c5cnn(C)c5)nn34)cn12", "note": "(stereo not shown) [Example 303, 1-{6-[6-(1-Methyl-1H-pyrazol-4-yl)-imidazo[1,2-b]pyridazin-3-ylmethyl]-imidazo[1,2-a]pyridin-3-yl}-ethanol]", "IC50": 190},
      {"molecule": "Cn1cc(-c2ccc3ncc(Cc4ccc5ncc(C(O)CO)n5c4)n3n2)cn1", "note": "(stereo not shown) [Example 304, 1-{6-[6-(1-Methyl-1H-pyrazol-4-yl)-imidazo[1,2-b]pyridazin-3-ylmethyl]-imidazo[1,2-a]pyridin-3-yl}-ethane-1,2-diol]", "IC50": 330},
      {"molecule": "Cn1cc(-c2ccc3ncc(Cc4ccc5ncc(-c6cccc(C#N)c6)n5c4)n3n2)cn1", "note": "[Example 305, 3-{6-[6-(1-Methyl-1H-pyrazol-4-yl)-imidazo[1,2-b]pyridazin-3-ylmethyl]-imidazo[1,2-a]pyridin-3-yl}-benzonitrile]", "IC50": 260},
      {"molecule": "Cn1cc(-c2ccc3ncc(Cc4ccc5ncc(-c6cccnc6)n5c4)n3n2)cn1", "note": "[Example 306, 6-(1-Methyl-1H-pyrazol-4-yl)-3-(3-pyridin-3-yl-imidazo[1,2-a]pyridin-6-ylmethyl)-imidazo[1,2-b]pyridazine]", "IC50": 100},
      {"molecule": "Cn1cc(-c2ccc3ncc(Cc4ccc5ncc(-c6cnn(C)c6)n5c4)n3n2)cn1", "note": "[Example 307, 6-(1-Methyl-1H-pyrazol-4-yl)-3-[3-(1-methyl-1H-pyrazol-4-yl)-imidazo[1,2-a]pyridin-6-ylmethyl]-imidazo[1,2-b]pyridazine]", "IC50": 320}
    ]}
  ]
}
